{"source": "patent US5508311A", "about": "“Aliphatic propargylamines as selective MAO-B inhibitors and as neuroprotective agents” (University of Saskatchewan, priority 1993, dated 1996)", "key": {"MAO-A [1]": {"target": "T1, MAO-A (Rattus norvegicus, UniProt P21396)", "T1 sequence (P21396 1-526)": "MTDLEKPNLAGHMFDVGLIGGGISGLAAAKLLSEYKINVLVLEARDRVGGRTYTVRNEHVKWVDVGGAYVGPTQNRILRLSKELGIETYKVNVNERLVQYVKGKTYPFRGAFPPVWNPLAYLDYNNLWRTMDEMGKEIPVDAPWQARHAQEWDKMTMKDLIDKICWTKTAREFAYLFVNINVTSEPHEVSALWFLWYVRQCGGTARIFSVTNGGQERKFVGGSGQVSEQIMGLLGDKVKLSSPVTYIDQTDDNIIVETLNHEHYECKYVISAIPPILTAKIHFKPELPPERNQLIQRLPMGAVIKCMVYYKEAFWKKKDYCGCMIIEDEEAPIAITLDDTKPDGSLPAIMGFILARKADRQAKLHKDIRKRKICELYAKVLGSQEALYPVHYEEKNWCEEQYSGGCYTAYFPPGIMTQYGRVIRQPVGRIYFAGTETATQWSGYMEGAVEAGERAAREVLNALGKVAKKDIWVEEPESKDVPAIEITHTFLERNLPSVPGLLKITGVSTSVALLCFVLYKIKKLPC", "assay": "biochemical", "type": "biochemical", "details": "substrate 5-HT (5 × 10^-4 M); rat liver MAO, in vitro; average of at least 3 independent experiments", "protocol": "(§1) The aliphatic propargylamine inhibitors (from 1×10^-10 M to 1×10^-4 M) were preincubated with the MAO for 20 min. at ambient room temperature and then the residual enzyme activities were determined by addition of the substrates, followed by further incubation at 37° C. for 30 min. The enzymatic reactions were terminated by the addition of citric acid and the aldehyde products were extracted with toluene: ethyl acetate (1:1, v/v) and the radio-activities assessed in a scintillation counter."}, "MAO-B [2]": {"target": "T2, MAO-B (Rattus norvegicus, UniProt P19643)", "T2 sequence (P19643 1-520)": "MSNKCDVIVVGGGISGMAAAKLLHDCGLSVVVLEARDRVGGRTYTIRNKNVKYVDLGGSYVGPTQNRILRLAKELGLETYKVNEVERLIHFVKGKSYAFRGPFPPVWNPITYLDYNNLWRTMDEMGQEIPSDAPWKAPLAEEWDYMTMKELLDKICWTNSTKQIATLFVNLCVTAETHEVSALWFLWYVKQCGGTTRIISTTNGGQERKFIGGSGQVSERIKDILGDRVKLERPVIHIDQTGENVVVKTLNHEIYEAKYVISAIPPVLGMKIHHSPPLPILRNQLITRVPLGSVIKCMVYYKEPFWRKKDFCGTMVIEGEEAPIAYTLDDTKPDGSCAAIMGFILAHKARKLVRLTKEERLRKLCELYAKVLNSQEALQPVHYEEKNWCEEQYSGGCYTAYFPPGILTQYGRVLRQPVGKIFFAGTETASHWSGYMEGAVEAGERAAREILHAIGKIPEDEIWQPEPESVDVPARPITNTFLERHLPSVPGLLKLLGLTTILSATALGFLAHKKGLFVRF", "assay": "biochemical", "type": "biochemical", "protocol": "as §1"}, "monoamine oxidase": {"target": "monoamine oxidase", "assay": "Inhibition of rat liver monoamine oxidase deamination of dopamine (DA, mixed-type MAO A and B substrate) in vitro", "type": "biochemical", "details": "substrate DA (5 × 10^-4 M), average of at least 3 independent experiments", "protocol": "as §1"}, "MAO-B [3]": {"target": "T3, MAO-B (Mus musculus, UniProt Q8BW75)", "T3 construct": "MAO activities in the mouse brain after; from tissue", "T3 sequence (Q8BW75 1-520)": "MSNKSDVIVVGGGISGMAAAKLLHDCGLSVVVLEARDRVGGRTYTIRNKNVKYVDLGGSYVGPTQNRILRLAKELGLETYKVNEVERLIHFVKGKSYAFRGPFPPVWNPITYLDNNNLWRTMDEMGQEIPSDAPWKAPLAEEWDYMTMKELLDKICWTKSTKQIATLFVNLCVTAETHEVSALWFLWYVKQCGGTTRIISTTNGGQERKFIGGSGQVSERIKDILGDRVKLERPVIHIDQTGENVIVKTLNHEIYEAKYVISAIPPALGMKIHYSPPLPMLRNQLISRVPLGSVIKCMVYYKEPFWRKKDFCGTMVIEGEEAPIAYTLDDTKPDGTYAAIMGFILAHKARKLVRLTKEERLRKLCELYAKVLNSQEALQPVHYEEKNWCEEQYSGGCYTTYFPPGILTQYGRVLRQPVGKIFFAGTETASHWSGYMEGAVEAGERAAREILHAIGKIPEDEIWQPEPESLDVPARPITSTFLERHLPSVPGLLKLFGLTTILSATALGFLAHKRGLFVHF", "assay": "in vivo", "type": "in vivo", "details": "mouse, ip", "protocol": "(§2) Albino Swiss mice were used in this study. The animals were injected intraperitoneally with different doses of the aliphatic propargylamines in 100 μL saline.\n(§3) 0.5, 1, 2, 5, 10, 20, 50, 100 mg/Kg. Striata were dissected from the brai\n(§4) two hours after i.p. administration of the drugs. MAOA and MAOB activitie\n(§5) were determined immediately. The values were estimated from doseresponse"}, "MAO-A [4]": {"target": "T4, MAO-A (Mus musculus, UniProt Q64133)", "T4 construct": "MAO activities in the mouse brain after; from tissue", "T4 sequence (Q64133 1-526)": "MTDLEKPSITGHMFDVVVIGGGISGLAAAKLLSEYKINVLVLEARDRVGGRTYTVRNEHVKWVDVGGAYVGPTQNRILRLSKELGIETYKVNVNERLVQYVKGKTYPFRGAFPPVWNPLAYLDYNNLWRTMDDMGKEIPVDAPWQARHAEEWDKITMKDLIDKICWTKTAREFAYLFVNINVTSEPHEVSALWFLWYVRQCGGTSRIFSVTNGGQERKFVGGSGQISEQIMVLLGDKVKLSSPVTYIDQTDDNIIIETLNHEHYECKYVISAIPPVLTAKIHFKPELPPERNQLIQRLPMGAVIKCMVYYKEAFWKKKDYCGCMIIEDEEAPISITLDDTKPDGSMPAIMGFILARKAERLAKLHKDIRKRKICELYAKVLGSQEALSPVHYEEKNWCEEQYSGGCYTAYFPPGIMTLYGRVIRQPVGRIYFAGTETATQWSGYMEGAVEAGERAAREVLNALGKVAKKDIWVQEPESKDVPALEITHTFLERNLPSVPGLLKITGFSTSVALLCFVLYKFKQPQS", "assay": "in vivo", "details": "ip, 2 h, read-out: 5-HT ID50", "protocol": "as §2, §3, §4, §5"}, "dopamine neurons": {"tested_on": "dopamine neurons", "assay": "Protection of dopamine neurons against MPTP-induced neurotoxicity in the mice brain", "type": "in vivo, mouse", "description": "Three days later, dopamine levels and dopamine uptake site densities (GBR bindings) were estimated."}, "[5]": {"details": "mouse, in vivo", "description": "The acute toxicity of these compounds is quite low. […]. The aliphatic side-chains of these aliphatic propargyl compounds are similar to those that exist in endogenous lipids and fatty acids and such aliphatic chains are readily oxidized in vivo. […]"}}, "data": [{"smiles": "C#CCN(C)C(C)CCC.Cl.O=C(O)C(=O)O", "note": "(centres unmarked) [Example M-2-PP, N-(2-Pentyl)-N-methylpropargylamine hydrochloride and oxalate]", "values": [{"measurement": "IC50", "setting": "MAO-A [1]", "result": 10, "unit": "µM"}, {"measurement": "Ratio MAO-A/MAO-B", "setting": "MAO-B [2]; rat, liver mitochondrial membranes", "result": 50}, {"measurement": "IC50", "setting": "MAO-B [2]; read-out: PE IC50", "result": 0.2, "unit": "µM"}, {"measurement": "IC50", "setting": "monoamine oxidase", "result": 6, "unit": "µM"}, {"measurement": "MAO-B ID50 (mg/Kg) / IC50 (1 × 10^-6 M)", "setting": "MAO-B [3]; in vivo", "result": 2.5}, {"measurement": "inhibition of brain MAO-B activity in vivo (in words)", "setting": "MAO-B [3]; in vivo", "result": "more potent than the longer chain analogs at inhibiting brain MAO-B activity"}, {"measurement": "Ratio MAO-A/MAO-B", "setting": "MAO-B [3]; in vivo, 120 min", "result": 50}, {"measurement": "ED50", "setting": "MAO-B [3]; 2 h, read-out: PE ID50", "result": 0.5, "unit": "mg/kg"}, {"measurement": "ED50", "setting": "MAO-A [4]", "result": 25, "unit": "mg/kg"}, {"measurement": "Dopamine", "setting": "dopamine neurons; 0.5 mg/Kg + MPTP", "result": 8.3, "unit": "μg/gm"}, {"measurement": "Dopamine binding site", "setting": "dopamine neurons; 0.5 mg/Kg + MPTP", "result": 312, "unit": "pmol/mg"}, {"measurement": "Dopamine", "setting": "dopamine neurons; 2.5 mg/Kg + MPTP", "result": 8.9, "unit": "μg/gm"}, {"measurement": "Dopamine binding site", "setting": "dopamine neurons; 2.5 mg/Kg + MPTP", "result": 306, "unit": "pmol/mg"}, {"measurement": "fatality after oral administration", "setting": "[5]", "result": "no fatality"}]}]}
